In US20120082632A1, “Topical drug delivery system with dual carriers” (priority 2010, published 2012):

Key:
[1] = test system: Staph aureus, MRSA, Klebsiella pneumoniae, E. coli, Proteus vulgaris, Pseudomonas aeruginosa, Enterobacter cloacae, Acinetobacter lwoffi, Acinetobacter …; experiment: In-vitro comparison of Lots with different anti-oxidant amounts and control agents (FIGS. 16-27); type: cell-based; conditions: identical size drops; FIG. 16 Staph aureus, FIG. 17 MRSA, FIGS. 18-24 gram-negative cultures, FIG. 25 Enterococcus faecalis
[2] = test system: MRSA infection and Grade I diabetic ulcer of the left hallux with cellulitus; experiment: Study III: human field study, diabetic foot lesion of great toe; type: in vivo; conditions: IV; 8 days following admission
Method: In this embodiment, the additional ingredient to hasten a third therapeutic tissue healing effect was added. This embodiment used vitamin D in a small but medically efficacious amount.

HL-60 cells = conditions: cited from earlier work
[3] = test system: mouse embryonic stem cells and embryoid bodies; conditions: cited from earlier work

| Compound | zones of inhibition of control agents compared with the formulations of the invention [1] | patient response to treatment for MRSA [2] | amount at which desired cellular responses occurred (HL-60 cells) | subsequent retinoid-induced TGM2 expression after priming by pretreatment (HL-60 cells) | effect on mRNA and protein expression in epigenetic profiles [3] |
| --- | --- | --- | --- | --- | --- |
| CN[C@H](CC(C)C)C(=O)N[C@H]1C(=O)N[C@@H](CC(N)=O)C(=O)N[C@H]2C(=O)N[C@H]3C(=O)N[C@H](C(=O)N[C@H](C(=O)O)c4cc(O)cc(O)c4-c4cc3ccc4O)[C@H](O)c3ccc(c(Cl)c3)Oc3cc2cc(c3O[C@@H]2O[C@H](CO)[C@@H](O)[C@H](O)[C@H]2O[C@H]2C[C@](C)(N)[C@H](O)[C@H](C)O2)Oc2ccc(cc2Cl)[C@H]1O [Vancomycin] | considerably reduced zones of inhibition | did not respond |  |  |  |
| CC[C@H]1OC(=O)[C@H](C)[C@@H](O[C@H]2C[C@@](C)(OC)[C@@H](O)[C@H](C)O2)[C@H](C)[C@@H](O[C@@H]2O[C@H](C)C[C@H](N(C)C)[C@H]2O)[C@](C)(O)C[C@@H](C)C(=O)[C@H](C)[C@@H](O)[C@]1(C)O [Erythromycin] | considerably reduced zones of inhibition |  |  |  |  |
| vitamin D |  |  | about 100 nM | increases |  |
| CO[C@@]1(NC(=O)Cc2cccs2)C(=O)N2C(C(=O)O)=C(COC(N)=O)CS[C@@H]21 [Cefoxicillin] | considerably reduced zones of inhibition |  |  |  |  |
| C[S+](C)[O-] [DMSO, dimethyl sulfoxide] |  |  | less than 2% | increases | upregulation of mRNA and protein expression |
